± gives the expanded uncertainty stated by the source.
Details: Liquid, Closed cell (Static) method

vapor or sublimation pressure (254.31 K) [kPa] | vapor or sublimation pressure (259.27 K) [kPa] | vapor or sublimation pressure (269.26 K) [kPa] | vapor or sublimation pressure (279.47 K) [kPa] | vapor or sublimation pressure (287.94 K) [kPa] | SMILES
127 ± 10 | 156 ± 10 | 231 ± 10 | 331 ± 10 | 437 ± 10 | CC(F)F [1,1-difluoroethane]
257 ± 10 | 303 ± 10 | 422 ± 10 | 574 ± 10 | 727 ± 10 | CCC [propane]
